Converted amounts (≈) assume the structure as drawn. Where two headings read alike, the source gives them in different places.
Legend:
Vero cells = test: Mammalian cell toxicity assay (CellTiter 96 Non-Radioactive Cell Proliferation Assay); format: cell-based; details: read-out: Vero cell IC50
[1] = tested on: MtbH37Rv pncA-knock out strain; test: microbe, parasite or virus in culture; format: cell-based, Mycobacterium tuberculosis; details: pH 6.7
M tb H37Rv [2] = test: microbe, parasite or virus in culture; format: cell-based, Mycobacterium tuberculosis; details: pH 5.2
[3] = tested on: MtbH37Rv pncA-knock out strain; test: microbe, parasite or virus in culture; format: cell-based, Mycobacterium tuberculosis; details: for MIC: pH 5.2
M tb H37Rv [4] = test: microbe, parasite or virus in culture; format: cell-based, Mycobacterium tuberculosis; details: pH 6.7
Mtb H37Rv-PH-GFP = format: cell-based, Mycobacterium tuberculosis; details: acidic medium (pH 5.2), FIG. 1-3
Mtb = details: standard culture conditions; cited from earlier work
[5] = Chlorocebus sabaeus, Vero, 72 h
[6] = Mycobacterium tuberculosis, read-out: MIC 6.7 KO
[7] = Mycobacterium tuberculosis, H37RV, read-out: MIC 5.2 WT
[8] = Mycobacterium tuberculosis, read-out: MIC 5.2 KO
[9] = Mycobacterium tuberculosis, H37RV, read-out: MIC 6.7 WT
[10] = Chlorocebus sabaeus, Table 1, Vero cells, 72 hours

SMILES | IC50 (Vero cells; Table 1, Vero cells, 72 hours) | MIC ([1]; read-out: MIC6.7KO) | MIC (M tb H37Rv [2]; read-out: MIC5.2WT) | MIC ([3]; read-out: MIC5.2KO) | MIC (M tb H37Rv [4]; read-out: MIC6.7WT) | MIC [1, 6] | MIC (M tb H37Rv [2]; [7]) | MIC [3, 8] | MIC (M tb H37Rv [4]; [9]) | other results
COc1cncc([B-](F)(F)F)n1.[K+] [Compound 2-5, [trifluoro-(6-methoxypyrazin-2-yl)-boranyl]potassium(1+)] | > 100 µM | >200 µM | 50 µM | 25 µM | >200 µM | – | – | – | – | –
Fc1cncc([B-](F)(F)F)c1.[K+] [Compound 4-2, [trifluoro-(5-fluoro-3-pyridyl)-boranyl] potassium(1+)] | > 100 µM | 100 µM | 50 µM | 25 µM | 200 µM | – | – | – | – | –
F[B-](F)(F)c1cncc(Cl)c1.[K+] [Compound 5-2, [(5-chloro-3-pyridyl)-trifluoro-boranyl] potassium(1+)] | > 100 µM | 100 µM | 50 µM | 50 µM | 100 µM | – | – | – | – | –
FB(F)c1cncc(N2CCCC2)n1 [Compound 7-5, potassium; difluoro-(6-pyrrolidin-1-ylpyrazin-2-yl)borane; fluoride] | – | – | – | – | – | > 200 µM | 100 µM | 50 µM | > 200 µM | IC50 (Vero cells; [5]): > 100 µM
N#Cc1cncc([B-](F)(F)F)c1 [Compound 11-2, potassium (5-cyanopyridin-3-yl)trifluoroborate] | – | – | – | – | – | > 200 µM | 100 µM | 100 µM | > 200 µM | IC50 (Vero cells; [5]): > 100 µM
F[B-](F)(F)c1cncc(C(F)(F)F)c1 [Compound 12-3, [trifluoro-[5-(trifluoromethyl)-3-pyridyl]-boranyl]potassium(1+)] | – | – | – | – | – | > 200 µM | 100 µM | 100 µM | > 200 µM | IC50 (Vero cells; [10]): > 100 µM
NNC(=O)c1ccncc1 [Isoniazid (INH), Isoniazid] | – | – | – | – | – | – | – | – | – | change in internal pH of Mtb (Mtb H37Rv-PH-GFP): does not have any effect on internal pH
NC(=O)c1cnccn1 [Pyrazinamide (PZA), Pyrazinamide, reference compound] | – | – | – | – | – | > 400 µM | 100 µM (≈ 12.3 µg/mL) | > 400 µM | > 400 µM | IC50 (Vero cells; [10]): > 100 µM; IC50 (Vero cells; Table 2, Vero cells, 72 hours): > 100 µM; MIC ([1]; Mycobacterium tuberculosis, read-out: MIC6.7KO): > 400 µM; MIC (M tb H37Rv [2]; Mycobacterium tuberculosis, H37RV, read-out: MIC5.2WT): 100 µM (≈ 12.3 µg/mL); MIC (M tb H37Rv [2]; Mycobacterium tuberculosis, H37RV, read-out: MIC against Mtb at pH 5.2): 100 to 200 µM (≈ 12.3 to 24.6 µg/mL); MIC ([3]; Mycobacterium tuberculosis, read-out: MIC5.2KO): > 400 µM; activity against pncA KO strain of Mtb ([3]; result in words): not active against an Mtb strain whose pncA is knocked out; minimum inhibitory concentration against Mtb (Mtb): > 200 µM; change in internal pH of Mtb (Mtb H37Rv-PH-GFP): lowering internal pH of Mtb; MIC (M tb H37Rv [4]; Mycobacterium tuberculosis, H37RV, read-out: MIC6.7WT): > 400 µM; MIC (M tb H37Rv [4]; Mycobacterium tuberculosis, H37RV, read-out: MIC at pH 6.7): > 400 µM

From US11261200B2, “Heteroaryltrifluoroborate compounds for the treatment of mycobacterial infections” (The Global Alliance for TB Drug Development, Inc., priority 2016, dated 2022)
